Source: US9790233B2, “Compositions and methods of modulating 15-PGDH activity” (CASE WESTERN RESERVE UNIVERSITY, priority 2012, dated 2017)

Columns and labels:
[1] = Survival following acetaminophen (Tylenol) overdose; format: in vivo, C57BL/6J mice
A549 cells = assay: PGE2 levels in the medium of IL1-beta stimulated A549 cells; format: cell-based;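 also: PGE2 in the collected culture medium quantified by enzyme immunoassay (ELISA), with data drawn from three independent experiments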
CD45.2 marked marrow = assay: Competitive bone marrow transplant, blood chimerism; format: in vivo, C57BL/6J mice; settings: donors 5 mg/kg IP daily for 3 doses; weeks 12 and 16
Protocol: On day 3 mice were sacrificed, marrow flushed and mixed at a 1:1 ratio with vehicle treated CD45.1 marrow. 2 million whole BM cells were injected into the tail vein of lethally irradiated CD45.1 mice and percent chimerism measured via flow cytometry at weeks 8, 12, 16.

CCCC[S+]([O-])c1sc2nc(-c3cccs3)cc(-c3ccccc3)c2c1N (stereo not drawn) [SW033291, 2-(butylsulfinyl)-4-phenyl-6-(thiophen-2-yl)thieno[2,3-b]pyridin-3-amine]
number of mice surviving ([1]; 1 dose/daily, first dose immediately after Tylenol, 24 hrs): 6 | number of mice surviving ([1]; 2 dose/daily, first dose immediately after Tylenol, 24 hrs): 6 | number of mice surviving ([1]; 2 dose/daily, first dose immediately after Tylenol, 48 hrs): 3 | number of mice surviving ([1]; 2 dose/daily, first dose immediately after Tylenol, 64 hrs): 3 | number of mice surviving ([1]; 2 dose/daily, first dose immediately after Tylenol, 72 hrs): 3 | number of mice surviving ([1]; 2 dose/daily, first dose immediately after Tylenol, 88 hr): 3 | number of mice surviving ([1]; 2 dose/daily, first dose immediately after Tylenol, 96 hr): 3 | number of mice surviving ([1]; 2 dose/daily, first dose immediately after Tylenol, 112 hr): 3 | number of mice surviving ([1]; 2 dose/daily, first dose immediately after Tylenol, 120 hr): 3 | number of mice surviving ([1]; acetaminophen 600 mg/kg, 5 mg/kg 1 dose/daily, first dose immediately after Tylenol injection, 16 hr): 6 | number of mice surviving ([1]; acetaminophen 600 mg/kg, 5 mg/kg 2 dose/daily, first dose immediately after Tylenol injection, 16 hr): 6 | Survival (number of mice) ([1]; acetaminophen 600 mg/kg, 5 mg/kg bid beginning 3 hours prior to acetaminophen, 6 doses, cohort of 6, 16 hr): 6 | Survival (number of mice) ([1]; acetaminophen 600 mg/kg, 5 mg/kg bid beginning 48 hours prior to acetaminophen, 9 doses, cohort of 12, 16 hr): 12 | mice survived at 120 hours ([1]; bid beginning 3 hours prior to acetaminophen): 3 of 6 | Survival (number of mice) ([1]; bid beginning 3 hours prior to acetaminophen, 24 hrs): 5 | Survival (number of mice) ([1]; bid beginning 3 hours prior to acetaminophen, 48 hrs): 3 | Survival (number of mice) ([1]; bid beginning 3 hours prior to acetaminophen, 64 hrs): 3 | Survival (number of mice) ([1]; bid beginning 3 hours prior to acetaminophen, 72 hrs): 3 | Survival (number of mice) ([1]; bid beginning 3 hours prior to acetaminophen, 88 hr): 3 | Survival (number of mice) ([1]; bid beginning 3 hours prior to acetaminophen, 96 hr): 3 | Survival (number of mice) ([1]; bid beginning 3 hours prior to acetaminophen, 112 hr): 3 | Survival (number of mice) ([1]; bid beginning 3 hours prior to acetaminophen, 120 hr): 3 | mice survived at 120 hours ([1]; bid beginning 48 hours prior to acetaminophen): 10 of 12 | Survival (number of mice) ([1]; bid beginning 48 hours prior to acetaminophen, 24 hrs): 12 | Survival (number of mice) ([1]; bid beginning 48 hours prior to acetaminophen, 40 hrs): 11 | Survival (number of mice) ([1]; bid beginning 48 hours prior to acetaminophen, 48 hrs): 10 | Survival (number of mice) ([1]; bid beginning 48 hours prior to acetaminophen, 64 hrs): 10 | Survival (number of mice) ([1]; bid beginning 48 hours prior to acetaminophen, 72 hrs): 10 | Survival (number of mice) ([1]; bid beginning 48 hours prior to acetaminophen, 88 hr): 10 | Survival (number of mice) ([1]; bid beginning 48 hours prior to acetaminophen, 96 hr): 10 | Survival (number of mice) ([1]; bid beginning 48 hours prior to acetaminophen, 112 hr): 10 | Survival (number of mice) ([1]; bid beginning 48 hours prior to acetaminophen, 120 hr): 10 | survival versus control mice ([1]; dosing begun immediately following acetaminophen, once or twice daily): No difference | rank of PGE2 level in the medium (A549 cells; 100 nM drug, FIG. 44): next highest level of PGE2 | PGE2 levels in medium (A549 cells; IL1-beta 23 hours, compound added for the last 5 hours): clear inhibition of 15-PGDH activity | percent blood chimerism of CD45.2 marked cells (CD45.2 marked marrow): significantly increased
